Test results: PMC7180452, “Purine and Purine Isostere Derivatives of Ferrocene: An Evaluation of ADME, Antitumor and Electrochemical Properties” (Molecules, 2020)
“Also recorded” adds a separate entry of the source.

Columns and labels:
[1] = system: MDCKII-hMDR1 cells; experiment: Permeability and P-gp substrate assessment in MDCKII-hMDR1 cell monolayer; assay type: in vitro ADME, canine; conditions: for Permeability classification: MDCKII-hMDR1, in words; for Efflux Ratio (BA/AB) / Papp (AB) / Papp (BA): without P-gp inhibitor; for Papp (AB) / Papp (BA): 10 µM, 60 min
Method: The Madin-Darby canine kidney cells with overexpressed human multidrug-resistant gene (MDCKII-hMDR1) have been frequently used to study bidirectional transport of compounds and assess P-gp substrate potential. Apparent permeability (Papp) values were determined from the amount permeated through the MDCKII-hMDR1 cell monolayer in both the apical-basolateral (AB) and basolateral-apical (BA) direction.
MDCKII-hMDR1 cell monolayer was used for determination of permeability and P-gp substrate assessment. MDCKII-hMDR1 cells (Solvo Biotechnology, Szeged, Hungary) were grown in the controlled atmosphere (37 °C, 95% humidity, 5% CO2) in MDCK cell culture medium containing Dulbecco’s Modified Eagle Medium (DMEM) + 10% Fetal bovine serum (FBS, inactivated) + 1% glutamax-100 + 1% antibiotic/antimycotic + 1% of Non-essential amino acids Minimum Essential Medium (MEM NEAA). Cultures were split every 3–4 days using 0.05% Trypsin-EDTA. Cells were seeded 4 days prior to the experiment in concentration of 0.3 × 10^6 cells mL^−1 and cultured in CO2 incubator. On the experiment day, cell monolayers were washed with Dulbecco’s phosphate buffer saline (D-PBS) and equilibrated for 45 min in CO2 incubator in D-PBS containing 1% DMSO (1% v/v) with or without Elacridar (2 µM). Compounds, in final concentration of 10 µM, were prepared in transport medium containing Lucifer yellow (100 µM), with DMSO contentment of 1% (v/v) and in the presence and without Elacridar. Lucifer yellow calibration curve was prepared by serial dilution (12 points, with 100 µM as the highest point). Monolayer integrity was examined by fluorescent measurement on a Microplate reader Infinite F500 (Tecan) by using an excitation of 485 nm and emission of 530 nm. Experiment was started by applying the solutions containing test compounds to apical and basolateral side of the cell monolayer. Starting compound concentration (C0) was sampled at the start of the experiment and apical and basolateral compartments were sampled after incubation at 37 °C with gentle shaking for 60 min. Compound were tested in duplicate. Amprenavir was used as a control with low permeability and as a P-gp substrate without inhibitor presence, turning into a highly permeable compound with the inhibitor present.
Samples were analyzed on an ABSciex API 4000 Triple Quadrupole Mass Spectrometer (Sciex, Division of MDS Inc., Toronto, ON, Canada) coupled to a UHPLC Nexera X2 (Shimadzu, Kyoto, Japan). Samples (1 µL) were injected onto a reversed phase HPLC column Luna Omega Polar C18, 30 × 2.1 mm i.d., 1.6 µm particle size (Phenomenex) which was kept at 50 °C. Aqueous solution was 0.1% formic acid in deionized water and the organic mobile phase was […]. Flow rate was kept at 0.7 mL min^−1 for all measurements. Fast-gradient elution was as follows: 2% of organic mobile phase through 0.15 min, from 2 to 95% of organic mobile phase (0.15−0.7 min), 95% of organic mobile phase (0.7−1.1 min), from 95 to 2% of organic mobile phase (1.1−1.11 min), and re-equilibration with 98% of aqueous mobile phase (1.11−1.5 min). Positive ion mode with turbo spray, an ion source temperature of 550 °C and a dwell time of 75 ms were utilized for mass spectrometric detection. Quantitation was performed using multiple reaction monitoring (MRM) at the specific transition corresponding to the compound of interest. Warfarin was used as an internal standard. The ratios between compound and internal standard peak areas were used instead of real compound concentration. Apparent permeability coefficient, Papp (nm s^−1) values were calculated by using the following Equation (1):Papp [nm s^−1] = (dQ/dT) × (1/C0) × (1/A)(1) where: dQ/dT = permeability rate; C0 = initial concentration in donor compartment; A = surface area of the cell monolayer (0.7 cm^2). […]

[2] = system: ductal pancreatic adenocarcinoma (CFPAC-1); experiment: In vitro antiproliferative activity, CFPAC-1; assay type: cell-based, human; conditions: CFPAC-1 cells
Method: Antiproliferative activity of compounds 11a−11c, 12a−12c, 13a−13c, 14a−14c, 15a−15c, 16a, 23a−23c, 24a−24c, 25a−25c, 34a−34c and 35a−35c was evaluated in vitro on four human tumor cell lines (American Type Culture Collection, Manassas, VA, USA): metastatic colorectal adenocarcinoma (SW620), ductal pancreatic adenocarcinoma (CFPAC-1), hepatocellular carcinoma (HepG2) and cervical carcinoma (HeLa) as well as normal skin fibroblasts (HFF).

[3] = Turbidimetric kinetic solubility assay; conditions: for Kinetic Solubility: PBS, 1% DMSO, 37 °C, 2 h, estimated range; for Solubility classification: kinetic solubility, in words
Method: The turbidimetric solubility assay, which allows a rapid determination of the kinetic solubility of newly synthesized compounds using small amounts of their DMSO solutions, was used to assess the kinetic solubility [38].
The compounds’ DMSO stock solutions in concentration of 10 mM were serially diluted by factor 3.3×, 3×, 3.3× and 3× in DMSO. Prepared solutions were spiked into phosphate-buffered saline (PBS, 100 mM) to obtain final compounds’ concentrations of 100, 30, 10, 3 and 1 µM (3 µL of prepared dilutions were spiked to 297 µL of PBS, with final DMSO content of 1%, v/v). All compounds were tested in two replicas per concentration. Prepared solutions were incubated at 37 °C for 2 h with gentle shaking. Blank solutions were also prepared by spiking DMSO in PBS buffer (1% of DMSO, v/v). […] Compound/control samples are compared to the blank solution. […] Results were expressed as an estimated solubility range (lower and upper bound).

[4] = Chrom logD determination (fast-gradient HPLC); conditions: pH 7.4
Method: The distribution coefficient Chrom logD, a parameter used to assess the lipophilicity of compounds [36, 37], was determined for novel purine and purine isosteres with a ferrocene motif as shown in Table 1.
The distribution coefficient, Chrom logD, was determined from compounds’ gradient retention times by employing a high-performance liquid chromatography method with fast acetonitrile gradient. Compounds were prepared for analysis in final concentration of 1.25 mM by dilution of 10 mM stock solutions in DMSO with acetonitrile. Aqueous mobile phase was 50 mM ammonium acetate adjusted with ammonia solution to pH 7.4 and the organic mobile phase was acetonitrile. A reversed phase HPLC column Luna C18, 50 × 3 mm i.d., 5 µm particle size (Phenomenex, Torrance, CA, USA) was used for analysis. Sample injection volume was 2 µL and the flow rate was 1 mL min^−1. All compounds were analysed in duplicates. Fast-gradient elution was as follows: from 0 to 100% of acetonitrile (0−3 min), 100% of acetonitrile (3.0−3.5 min), from 100 to 0% of acetonitrile (3.5−3.7 min), and re-equilibration with 100% of aqueous mobile phase (3.7−5.0 min). All measurements were performed on an HPLC-DAD instrument Agilent 1100 Series (Agilent Technologies, Santa Clara, CA, USA) coupled with a mass spectrometer Micromass Quattro API (Waters, MA, USA). MassLynx software, version 4.1 (Waters, Manchester, UK) was used for data acquisition and processing. Before compound analysis, a calibration step was performed. A set of standard compounds with literature CHI values [36] were plotted against gradient retention times to obtain a calibration equation, which was used to determine CHI value from the compounds’ retention times.

[5] = Metabolic stability in human liver microsomes; assay type: in vitro ADME; conditions: for t1/2: 1 µM; for In Vivo CLh / In Vivo CLh (% LBF): human; for In Vivo CLh: predicted in vivo hepatic clearance; for In Vivo CLh (% LBF): predicted, % of liver blood flow
Method: Metabolic stability of compounds was assessed in human and mouse liver microsomes (Corning, Tewksbury, MA, USA). Compounds, in final concentration of 1 µM, were incubated in phosphate buffer (50 mM, pH 7.4) for 60 min at 37 °C together with liver microsomes and NADPH generating system (nicotinamide adenine dinucleotide phosphate (NADP, 0.5 mM), glucose-6-phosphate (G6P, 5 mM), glucose-6-phosphate dehydrogenase (1.5 U mL^−1) and magnesium chloride (0.5 mM)). Also, compounds were incubated without the presence of NADPH cofactor, as a buffer stability control. Metabolic activity of liver microsomes was verified by including testosterone and propranolol as positive controls, as well as caffeine as a negative control. Sampling was performed at six time points (0, 10, 20, 30, 45 and 60 min), followed by reaction termination by addition of acetonitrile/methanol mixture (2:1, v/v) containing dicofenac as internal standard. Samples were analyzed as previously described for samples from permeability assay. The in vitro half-life (t1/2) was calculated from the slope of the linear regression by plotting ln % remaining of parent compound against incubation time. In vitro intrinsic clearance, CLint was calculated from half-life using following Equation (3):(3) CLint [µL min^−1 mg^−1]=ln2/t1/2×mL per incubation/mg protein per incubation where 52.5 mg protein/g liver is used as a constant.
Predicted in vivo hepatic clearance, in vivo CLh was calculated as follows:(4) in vivo CLh [mL min^−1 kg^−1]=CLint×(mg protein/g liver)×Q×(LW/BW) /Q+(CLint×(mg protein/g liver)×(LW/BW)) where: LW/BW = liver weight/body weight [g kg^−1]; 25.7 (human), 87.5 (mouse); Q = LBF = liver blood flow [mL min^−1 kg^−1]; 21/1.26 (human), 131/7.86 (mouse).
Predicted in vivo hepatic clearance can be expressed as %LBF and calculated as follows:(5) in vivo CLh [%LBF]=in vivo CLh/LBF×100

| Permeability classification [1] | Efflux Ratio (BA/AB) [1] | Papp (AB) [1] [cm/s] | Papp (BA) [1] [cm/s] | IC50 [2] [µM] | Kinetic Solubility [3] [µM] | Chrom logD [4] | t1/2 ([5]; human liver microsomes) [min] | In Vivo CLh [5] [mL/min/kg] | In Vivo CLh (% LBF) [5] [% LBF] | Solubility classification [3] | SMILES | Metabolic stability classification ([5]; human liver microsomes, in words) |
| --- | --- | --- | --- | --- | --- | --- | --- | --- | --- | --- | --- | --- |
| moderate AB permeability | 2.9 | 5.3e-06 | 1.49e-05 | 35 ± 5.44 | 3 to 10 | 5.62 | 4.1 | 24.3 | 95 |  | Clc1ncnc2c1ccn2Cc1cn(-[c-]2cccc2)nn1.[Fe+2].c1cc[cH-]c1 [Compound 11c, 4-Chloro-7-[1-(1-ferrocenyl-1,2,3-triazol-1-yl)methyl]-7H-pyrrolo[2,3-d]pyrimidine] |  |
| moderate AB permeability | 10.7 | 3.2e-06 | 3.32e-05 | 28.6 ± 2.68 | >100 | 4.15 | 19.0 | 20.4 | 79 | high solubility | CC([c-]1cccc1)n1cc(Cn2cnc3ncnc(Cl)c32)nn1.[Fe+2].c1cc[cH-]c1 (stereo not drawn) [Compound 15b, 6-Chloro-7-[1-(1-ferrocenyl-1-methylmethyl-1,2,3-triazol-4-yl)methyl]-7H-purine] |  |

| SMILES | Permeability classification [1] | Efflux Ratio (BA/AB) [1] | Papp (AB) [1] [cm/s] | Papp (BA) [1] [cm/s] | IC50 [2] [µM] | Kinetic Solubility [3] [µM] | Chrom logD [4] | t1/2 ([5]; human liver microsomes) [min] | In Vivo CLh [5] [mL/min/kg] | In Vivo CLh (% LBF) [5] [% LBF] | Solubility classification [3] | Metabolic stability classification ([5]; human liver microsomes, in words) |
| --- | --- | --- | --- | --- | --- | --- | --- | --- | --- | --- | --- | --- |
| Clc1ncnc2c1ncn2Cc1cn(C[c-]2cccc2)nn1.[Fe+2].c1cc[cH-]c1 [Compound 13a, 6-Chloro-9-[1-(1-ferrocenymethyl-1,2,3-triazol-4-yl)methyl]-9H-purine] | moderate to high AB permeability; also recorded: good permeability | 2.9 | 8.3e-06 | 2.38e-05 | 22.8 ± 4.31 | >100 | 4.27 | 38.6 | 16.8 | 65 | high solubility | good metabolic stability; also recorded: moderately stable; also recorded: moderate stability |
